How the values were obtained:
[1] = molecular target: T1, Odorant receptor 29 (AgamOr29) (Anopheles gambiae, UniProt A0A1S4H074); test: two-electrode voltage clamp of Xenopus oocytes, concentration-response; format: cell-based
T1 construct: coding region, expressed with AgamOrco in Xenopus laevis oocytes; with AgamOrco
T1 sequence (A0A1S4H074 1-384): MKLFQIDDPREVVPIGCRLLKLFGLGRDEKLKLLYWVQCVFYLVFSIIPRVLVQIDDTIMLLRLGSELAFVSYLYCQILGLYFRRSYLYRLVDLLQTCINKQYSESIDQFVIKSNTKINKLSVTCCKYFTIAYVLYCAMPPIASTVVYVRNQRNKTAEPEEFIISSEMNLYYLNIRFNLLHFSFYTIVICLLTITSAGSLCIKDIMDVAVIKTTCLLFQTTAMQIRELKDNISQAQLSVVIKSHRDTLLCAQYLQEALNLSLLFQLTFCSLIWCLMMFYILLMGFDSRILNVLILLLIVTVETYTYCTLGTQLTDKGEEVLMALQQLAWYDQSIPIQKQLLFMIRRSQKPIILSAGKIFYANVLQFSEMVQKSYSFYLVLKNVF
T1 sequence (Q7QCC7 1-478 partner): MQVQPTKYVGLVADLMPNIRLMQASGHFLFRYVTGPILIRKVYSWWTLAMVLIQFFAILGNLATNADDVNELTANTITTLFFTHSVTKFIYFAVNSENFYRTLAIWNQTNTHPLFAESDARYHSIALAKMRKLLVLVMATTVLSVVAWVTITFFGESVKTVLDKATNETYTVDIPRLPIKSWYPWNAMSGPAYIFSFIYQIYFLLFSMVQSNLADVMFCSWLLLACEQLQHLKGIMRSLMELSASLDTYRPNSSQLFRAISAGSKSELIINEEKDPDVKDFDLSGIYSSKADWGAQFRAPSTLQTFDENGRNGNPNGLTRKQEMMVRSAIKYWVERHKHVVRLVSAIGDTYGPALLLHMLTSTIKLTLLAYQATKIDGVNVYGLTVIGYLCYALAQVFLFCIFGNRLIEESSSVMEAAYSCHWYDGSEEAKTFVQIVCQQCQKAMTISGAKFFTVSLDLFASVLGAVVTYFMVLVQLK
Excerpt: two-electrode voltage clamp of Xenopus oocytes, concentration-response on Odorant receptor 29 (AgamOr29) | to (R)-(–)-linalool (left)and (+/–) linalool (right).

[2] = molecular target: T1, Odorant receptor 29 (AgamOr29); test: two-electrode voltage clamp of Xenopus oocytes, single concentration […]; format: cell-based

Compound | EC50 [1] | two-electrode voltage clamp of Xenopus oocytes, single concentration 10^-4 M [2]
C=CC(C)(O)CCC=C(C)C (racemic) [(+/–) linalool] | ~5.7 µM | –
C=C[C@](C)(O)CCC=C(C)C [(R)-(–)-linalool] | ~8 µM | –
CCC(C)(O)CCCC(C)C (stereo not drawn) [tetrahydro linalool] | – | tetrahydro linalool elicited a moderate, but repeatable response from AgamOr29, likely due to its structural similarity to linalool

Reference: PMC6872167, “An odorant receptor from Anopheles gambiae that demonstrates enantioselectivity to the plant volatile, linalool” (PLoS ONE, 2019)
